Assay [1] concerns the target T1, Inhibitor of nuclear factor kappa-B kinase subunit epsilon (Homo sapiens) (UniProt Q14164).
T1 sequence (whole entry): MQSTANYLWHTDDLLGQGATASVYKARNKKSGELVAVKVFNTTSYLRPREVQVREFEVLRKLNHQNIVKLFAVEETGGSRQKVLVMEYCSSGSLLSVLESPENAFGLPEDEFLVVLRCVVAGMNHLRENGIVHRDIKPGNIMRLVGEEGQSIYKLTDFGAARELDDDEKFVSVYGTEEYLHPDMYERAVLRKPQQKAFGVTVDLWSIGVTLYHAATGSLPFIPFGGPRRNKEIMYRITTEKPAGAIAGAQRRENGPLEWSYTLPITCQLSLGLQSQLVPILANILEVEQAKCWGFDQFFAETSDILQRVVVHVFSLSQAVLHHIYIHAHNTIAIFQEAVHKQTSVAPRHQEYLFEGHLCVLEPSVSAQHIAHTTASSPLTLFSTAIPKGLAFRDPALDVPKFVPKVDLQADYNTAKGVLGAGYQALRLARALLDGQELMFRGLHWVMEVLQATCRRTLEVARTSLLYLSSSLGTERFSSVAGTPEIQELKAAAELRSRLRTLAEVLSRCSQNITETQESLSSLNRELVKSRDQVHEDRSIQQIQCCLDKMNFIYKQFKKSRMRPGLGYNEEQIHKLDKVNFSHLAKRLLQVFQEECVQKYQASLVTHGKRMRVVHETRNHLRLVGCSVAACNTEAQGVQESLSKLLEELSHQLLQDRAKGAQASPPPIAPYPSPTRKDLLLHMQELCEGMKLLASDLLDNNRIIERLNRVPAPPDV
Description: Inhibition of recombinant full-length human GST-tagged IKKepsilon expressed in baculovirus expression system at 500 nM by Z-LYTE assay relative to control.

For assay [2], the target named is Mitogen-activated protein kinase 1 (Homo sapiens) (UniProt P28482). As to the kind of experiment: Inhibition of recombinant human full length GST-tagged ERK2 expressed in Escherichia coli at 500 nM by Z-LYTE assay relative to control.
Sequence of Mitogen-activated protein kinase 1 (Homo sapiens) (P28482 whole entry): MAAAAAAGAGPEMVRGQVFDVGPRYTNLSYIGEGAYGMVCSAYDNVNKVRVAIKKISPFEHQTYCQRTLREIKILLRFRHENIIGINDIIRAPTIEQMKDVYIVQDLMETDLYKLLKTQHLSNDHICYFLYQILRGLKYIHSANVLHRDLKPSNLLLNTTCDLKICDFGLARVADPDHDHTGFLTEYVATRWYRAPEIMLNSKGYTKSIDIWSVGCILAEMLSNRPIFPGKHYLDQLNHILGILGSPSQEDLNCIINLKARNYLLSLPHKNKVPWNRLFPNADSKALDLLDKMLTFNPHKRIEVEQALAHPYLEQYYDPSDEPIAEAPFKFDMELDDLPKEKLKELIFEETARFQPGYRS
Assay [3] has as its target Dual specificity mitogen-activated protein kinase kinase 1 (Homo sapiens) (UniProt Q02750). As to the kind of experiment: Inhibition of recombinant human full length His-tagged MEK1 expressed in baculovirus expression system at 500 nM by Z-LYTE assay relative to control.
For assay [4], the target named is Glycogen synthase kinase-3 beta (Homo sapiens) (UniProt P49841). As to the kind of experiment: Inhibition of recombinant full-length human His-tagged GSK3beta expressed in baculovirus expression system at 500 nM by Z-LYTE assay relative to control.
Sequence of Glycogen synthase kinase-3 beta (Homo sapiens) (P49841 whole entry, looked up, the tested form may be a part): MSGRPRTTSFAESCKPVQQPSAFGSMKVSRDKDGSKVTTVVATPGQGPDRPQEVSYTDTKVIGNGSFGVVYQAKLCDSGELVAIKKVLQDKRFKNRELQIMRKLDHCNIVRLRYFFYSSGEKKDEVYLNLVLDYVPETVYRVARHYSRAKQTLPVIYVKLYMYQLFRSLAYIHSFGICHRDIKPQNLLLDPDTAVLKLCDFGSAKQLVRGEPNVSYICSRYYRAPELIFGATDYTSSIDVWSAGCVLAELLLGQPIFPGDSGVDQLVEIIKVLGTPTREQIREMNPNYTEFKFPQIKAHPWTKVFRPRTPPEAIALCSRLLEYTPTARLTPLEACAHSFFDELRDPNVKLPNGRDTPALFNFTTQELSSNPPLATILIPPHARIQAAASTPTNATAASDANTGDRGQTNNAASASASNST
Assay [5] has as its target Platelet-derived growth factor receptor beta (Homo sapiens) (UniProt P09619). Description: Inhibition of recombinant human His-tagged PDGFRbeta cytoplasmic domain expressed in baculovirus expression system at 500 nM by Z-LYTE assay relative to control.
In assay [6] the target is Mitogen-activated protein kinase 3 (Homo sapiens) (UniProt P27361). Description: Inhibition of recombinant human full length GST-tagged ERK1 expressed in Escherichia coli at 500 nM by Z-LYTE assay relative to control.
Sequence of Mitogen-activated protein kinase 3 (Homo sapiens) (P27361 whole entry, the tested form may be a part): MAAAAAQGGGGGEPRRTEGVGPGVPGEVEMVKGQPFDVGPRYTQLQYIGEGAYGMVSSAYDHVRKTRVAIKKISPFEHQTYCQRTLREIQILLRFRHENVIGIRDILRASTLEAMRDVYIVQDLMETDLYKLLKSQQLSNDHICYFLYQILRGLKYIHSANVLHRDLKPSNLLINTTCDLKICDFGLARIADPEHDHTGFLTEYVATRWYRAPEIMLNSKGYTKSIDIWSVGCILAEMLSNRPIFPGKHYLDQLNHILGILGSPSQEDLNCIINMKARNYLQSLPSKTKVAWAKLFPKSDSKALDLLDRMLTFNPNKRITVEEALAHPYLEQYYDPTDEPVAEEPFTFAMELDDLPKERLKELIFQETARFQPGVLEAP
Assay [7] deals with Vascular endothelial growth factor receptor 2 (Homo sapiens) (UniProt P35968). Description: Inhibition of recombinant human His-tagged KDR cytoplasmic domain (789 to 1356 residues) expressed in baculovirus expression system at 500 nM by Z-LYTE assay relative to control.
A further assay has as its system PBMC. As to the kind of experiment: Inhibition of IL-5 secretion in anti-human CD3 antibody/anti-human CD28 antibody/IL23-stimulated human PBMC after 48 hrs by ELISA. Type of assay: functional, cell-based.
Assay [8] has as its target PI3-kinase p110-alpha/p85-alpha (Homo sapiens) (UniProt P27986+P42336). Description: Inhibition of recombinant full length human His-tagged PI3K p110alpha/p85alpha at 500 nM by Z-LYTE assay relative to control. It is filed as protein-complex assay.
Assay [9] concerns the target RAC-alpha serine/threonine-protein kinase (Homo sapiens) (UniProt P31749). As to the kind of experiment: Inhibition of recombinant human full length His-tagged AKT1 expressed in baculovirus expression system at 500 nM by Z-LYTE assay relative to control.
The target in assay [10] is Mitogen-activated protein kinase 11 (Homo sapiens) (UniProt Q15759). Description: Inhibition of recombinant human full length His-tagged p38-beta expressed in baculovirus expression system at 500 nM by Z-LYTE assay relative to control.
Sequence of Mitogen-activated protein kinase 11 (Homo sapiens) (Q15759 whole entry): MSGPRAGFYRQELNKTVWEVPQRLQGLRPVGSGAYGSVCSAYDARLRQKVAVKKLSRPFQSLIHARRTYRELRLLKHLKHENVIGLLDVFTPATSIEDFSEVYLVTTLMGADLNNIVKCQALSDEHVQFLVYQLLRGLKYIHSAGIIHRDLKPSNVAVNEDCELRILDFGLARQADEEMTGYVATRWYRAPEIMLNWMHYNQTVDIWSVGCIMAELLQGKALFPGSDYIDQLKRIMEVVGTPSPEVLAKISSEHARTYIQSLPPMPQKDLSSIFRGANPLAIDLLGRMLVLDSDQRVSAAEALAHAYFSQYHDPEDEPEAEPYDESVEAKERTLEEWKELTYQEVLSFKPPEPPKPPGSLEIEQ
Assay [11] concerns the target Serine/threonine-protein kinase pim-3 (Homo sapiens) (UniProt Q86V86). As to the kind of experiment: Inhibition of recombinant full length human GST-tagged PIM3 expressed in insect cells at 500 nM by Z-LYTE assay relative to control.
The target in assay [12] is Tyrosine-protein kinase BTK (Homo sapiens) (UniProt Q06187). Description: Inhibition of recombinant human full length His-tagged BTK expressed in baculovirus expression system at 500 nM by Z-LYTE assay relative to control.
Sequence of Tyrosine-protein kinase BTK (Homo sapiens) (Q06187 whole entry): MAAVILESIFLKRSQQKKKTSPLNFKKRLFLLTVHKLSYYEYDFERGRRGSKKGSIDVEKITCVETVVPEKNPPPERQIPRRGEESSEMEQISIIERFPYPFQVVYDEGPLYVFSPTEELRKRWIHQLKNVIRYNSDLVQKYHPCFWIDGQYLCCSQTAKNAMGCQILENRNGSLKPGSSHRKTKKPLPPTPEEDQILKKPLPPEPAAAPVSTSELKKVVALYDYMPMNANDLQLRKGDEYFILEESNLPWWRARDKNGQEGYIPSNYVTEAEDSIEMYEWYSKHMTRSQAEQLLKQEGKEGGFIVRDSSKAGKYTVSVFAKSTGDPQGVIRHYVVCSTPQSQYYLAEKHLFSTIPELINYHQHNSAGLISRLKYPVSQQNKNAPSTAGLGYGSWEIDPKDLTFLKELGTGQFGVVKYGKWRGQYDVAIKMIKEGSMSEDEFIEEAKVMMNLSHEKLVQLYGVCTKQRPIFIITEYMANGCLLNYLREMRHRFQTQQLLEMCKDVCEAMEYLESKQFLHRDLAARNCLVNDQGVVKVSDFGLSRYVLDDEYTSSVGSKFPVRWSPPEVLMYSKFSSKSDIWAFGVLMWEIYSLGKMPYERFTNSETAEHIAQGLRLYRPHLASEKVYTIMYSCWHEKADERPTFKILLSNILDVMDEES
Assay [13] deals with T2, Mitogen-activated protein kinase 13 (Homo sapiens) (UniProt O15264).
T2 sequence (whole entry): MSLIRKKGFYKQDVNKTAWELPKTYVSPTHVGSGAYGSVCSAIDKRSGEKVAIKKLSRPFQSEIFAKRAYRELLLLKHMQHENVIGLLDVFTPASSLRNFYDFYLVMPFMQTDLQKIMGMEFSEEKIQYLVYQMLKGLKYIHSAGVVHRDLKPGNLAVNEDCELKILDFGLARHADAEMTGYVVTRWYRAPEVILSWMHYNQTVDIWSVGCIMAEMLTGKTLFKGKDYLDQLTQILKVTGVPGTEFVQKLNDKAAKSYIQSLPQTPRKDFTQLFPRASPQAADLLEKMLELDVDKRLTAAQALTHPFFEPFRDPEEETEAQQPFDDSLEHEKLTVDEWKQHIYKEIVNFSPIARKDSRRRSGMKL
As to the kind of experiment: Inhibition of recombinant human full length His-tagged p38-delta expressed in baculovirus expression system at 500 nM by Z-LYTE assay relative to control.

In assay [14] the target is Nuclear receptor ROR-gamma (Homo sapiens, UniProt P51449). Description: Antagonist activity at GAL4-DBD fused human RORgamma LBD expressed in HEK293 cells after 18 hrs by luciferase reporter gene assay. Type of assay: cell-based. A general note: In a reporter assay the amount or activity of a reporter protein is the signal.
Assay [15] deals with Luciferin 4-monooxygenase (Photinus pyralis, UniProt P08659). Description: Inhibition of firefly luciferase activity expressed in HEK293 cells after 18 hrs by luminescence assay. It is filed as cell-based.

Sequence of RAC-alpha serine/threonine-protein kinase (Homo sapiens) (P31749 whole entry): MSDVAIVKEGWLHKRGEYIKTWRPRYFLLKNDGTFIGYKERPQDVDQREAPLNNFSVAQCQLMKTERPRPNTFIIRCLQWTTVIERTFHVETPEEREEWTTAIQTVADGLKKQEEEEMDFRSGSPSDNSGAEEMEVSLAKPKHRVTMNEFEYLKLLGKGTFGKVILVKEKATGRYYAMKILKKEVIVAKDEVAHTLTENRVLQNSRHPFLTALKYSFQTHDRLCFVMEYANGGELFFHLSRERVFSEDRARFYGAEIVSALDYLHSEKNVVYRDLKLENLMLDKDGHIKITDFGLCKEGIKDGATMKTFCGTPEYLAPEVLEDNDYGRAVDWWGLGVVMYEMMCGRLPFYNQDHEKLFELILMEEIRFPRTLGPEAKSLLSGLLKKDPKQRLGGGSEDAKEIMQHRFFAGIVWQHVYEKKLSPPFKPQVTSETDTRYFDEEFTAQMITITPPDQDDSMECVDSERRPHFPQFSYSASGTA
Sequence of Platelet-derived growth factor receptor beta (Homo sapiens) (P09619 whole entry, the tested form may be a part): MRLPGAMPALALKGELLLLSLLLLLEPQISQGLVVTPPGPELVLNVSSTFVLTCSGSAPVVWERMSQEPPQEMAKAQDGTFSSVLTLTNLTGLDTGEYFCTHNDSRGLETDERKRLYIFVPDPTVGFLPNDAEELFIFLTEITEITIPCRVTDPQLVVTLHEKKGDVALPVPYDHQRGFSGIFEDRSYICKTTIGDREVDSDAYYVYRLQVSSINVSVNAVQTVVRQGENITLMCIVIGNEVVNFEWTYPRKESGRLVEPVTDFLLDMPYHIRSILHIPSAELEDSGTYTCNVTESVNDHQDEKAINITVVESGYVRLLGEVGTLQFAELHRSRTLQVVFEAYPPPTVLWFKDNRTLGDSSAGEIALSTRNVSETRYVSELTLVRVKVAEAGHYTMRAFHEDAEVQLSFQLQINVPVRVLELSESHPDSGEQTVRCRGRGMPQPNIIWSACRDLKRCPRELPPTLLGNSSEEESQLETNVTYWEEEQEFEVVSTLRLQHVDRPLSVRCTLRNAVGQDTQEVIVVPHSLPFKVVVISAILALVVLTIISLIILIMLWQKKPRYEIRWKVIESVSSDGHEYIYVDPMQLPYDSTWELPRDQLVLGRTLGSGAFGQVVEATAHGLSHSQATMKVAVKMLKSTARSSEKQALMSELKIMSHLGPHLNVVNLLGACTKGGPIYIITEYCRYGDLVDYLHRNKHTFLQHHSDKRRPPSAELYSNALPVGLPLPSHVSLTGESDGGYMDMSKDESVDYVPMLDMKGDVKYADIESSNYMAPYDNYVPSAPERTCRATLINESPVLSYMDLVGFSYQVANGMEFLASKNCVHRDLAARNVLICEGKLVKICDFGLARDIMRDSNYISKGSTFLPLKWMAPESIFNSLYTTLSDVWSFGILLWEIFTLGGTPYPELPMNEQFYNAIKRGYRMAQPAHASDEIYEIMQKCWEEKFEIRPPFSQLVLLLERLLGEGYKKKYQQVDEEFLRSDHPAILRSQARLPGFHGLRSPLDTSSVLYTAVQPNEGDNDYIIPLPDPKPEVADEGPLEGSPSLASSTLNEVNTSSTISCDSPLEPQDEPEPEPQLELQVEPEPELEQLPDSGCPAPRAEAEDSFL
Sequence of Dual specificity mitogen-activated protein kinase kinase 1 (Homo sapiens) (Q02750 whole entry): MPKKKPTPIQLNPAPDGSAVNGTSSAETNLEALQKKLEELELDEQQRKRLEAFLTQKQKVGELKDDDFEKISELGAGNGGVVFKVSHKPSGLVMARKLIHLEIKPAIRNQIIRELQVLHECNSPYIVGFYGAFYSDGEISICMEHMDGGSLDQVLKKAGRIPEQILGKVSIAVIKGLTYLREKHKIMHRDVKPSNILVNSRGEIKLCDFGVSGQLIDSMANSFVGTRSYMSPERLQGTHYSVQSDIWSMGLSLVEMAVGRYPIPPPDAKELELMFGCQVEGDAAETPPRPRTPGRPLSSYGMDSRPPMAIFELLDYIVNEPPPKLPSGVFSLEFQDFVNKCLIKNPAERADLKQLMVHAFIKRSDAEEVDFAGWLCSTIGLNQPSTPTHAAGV

For the compound `OC[C@@H](Nc1ncnc2sc(-c3ccc(O)cc3)cc12)c1ccccc1`, the inhibition (usually the relative decrease from the control value, in per cent) is -1% in assay [1]; 7% in [2]; 21% in assay [3]; 6% in assay [4]; 1% in assay [5]; 6% in [6]. Further, the inhibition was 20% in assay [7]; 16% in [8]; -1% in [9]; 4% in assay [10]; 7% in assay [11]; 5% in [12]. For the same compound, the inhibition in assay [13] was -2%. Besides, the IC50 (as a rule, the concentration that gives 50% inhibition) in the assay with PBMC lay in the range of 13 to 13.1 µM.
On to `CCC(=O)Nc1ccc(-c2c[nH]c3ncnc(N[C@H](C)c4ccccc4)c23)cc1`, for which the inhibition in assay [1] was -2%; in assay [2], 6%; in assay [3], 15%; in assay [4], 31%; in [5], 5%; in [6], 0%. Moreover, the inhibition is 7% in [7]; -4% in assay [9]; 2% in assay [10]; -1% in assay [11]; 3% in assay [12]; 3% in assay [13]. For the same compound, the IC50 in [14] is 4.9 µM; in assay [15] it was 9.1 µM.
Consider `CN(C)CCn1cc(-c2cccc(O)c2)c2c(N)ncnc21`, for which the inhibition in [1] came out at 3%; in [2] it was 6%; in assay [3], 6%; in [4], 7%; in [5], 5%; in [6] it was 0%. Besides, the inhibition was 17% in [7]; 0% in [9]; 2% in assay [10]; -7% in assay [11]; 62% in assay [12]; 1% in assay [13]. The IC50 in assay [14] and in [15] was greater than 10 µM throughout.
For the compound `OCc1ccc(-c2cc3c(N[C@H](CO)c4ccccc4)ncnc3[nH]2)cc1`, the inhibition amounted to 3% in [1]; 9% in assay [2]; 10% in assay [3]; 10% in assay [4]; 7% in assay [5]; 3% in assay [6]. Besides, the inhibition in assay [7] is 38%; in assay [9], -4%; in [10] it was 6%; in assay [11], 3%; in [12], 9%; in assay [13], 0%. In the assay on PBMC, this compound yielded an IC50 of 1.1 µM.

(Values after ChEMBL document CHEMBL4152312, “Identification of fused pyrimidines as interleukin 17 secretion inhibitors” (Eur J Med Chem, 2018).)
